From patent publication US9650395B2, “Antibacterial compounds and methods for use” (PTC Therapeutics, Inc., priority 2011, dated 2017)
Converted amounts (≈) assume the structure as drawn.

Key:
[1] = tested on: super sensitive Gram-negative Escherichia coli (E. coli) BAS849; experiment: Antibacterial activity, microbroth dilution MIC, E. coli BAS849; format: cell-based; conditions: Escherichia coli; E. coli BAS849, microbroth dilution; read-out: MIC, BAS849
[2] = tested on: control Gram-negative E. coli 25922 strain; experiment: Antibacterial activity, microbroth dilution MIC, E. coli 25922; format: cell-based, Escherichia coli; conditions: Escherichia coli; E. coli 25922, microbroth dilution; read-out: MIC, 25922
[3] = tested on: Gram-positive Staphylococcus aureus (S. aureus) 29213; experiment: Antibacterial activity, microbroth dilution MIC, S. aureus 29213; format: cell-based; conditions: Staphylococcus aureus; S. aureus 29213, microbroth dilution; read-out: MIC, 29213
[4] = tested on: quinolone resistant E. coli LZ3111; experiment: Antibacterial activity, MIC, quinolone resistant E. coli LZ3111; format: cell-based, Escherichia coli; conditions: Escherichia coli, read-out: MIC, LZ3111
Text: (§1) The antibacterial activity from a microbroth dilution method may be presented as the minimum inhibitory concentration (MIC in […]). The MIC value is the lowest concentration of a drug which prevents macroscopically visible bacterial growth under test conditions.
Mutations in these regions are known to confer a high level resistance to the quinolone class of antibiotics.

[5] = tested on: Acinetobacter baumannii (A. baumannii) BAA747; experiment: Antibacterial activity, MIC, A. baumannii BAA747; format: cell-based; conditions: Acinetobacter baumannii; A. baumannii BAA747; read-out: MIC BAA747
[6] = tested on: Klebsiella pneumoniae (K. pneumoniae) 35657; experiment: Antibacterial activity, MIC, K. pneumoniae 35657; format: cell-based; conditions: Klebsiella pneumoniae
[7] = tested on: resistant A. baumannii MXX2240 (MDR clinical isolate); experiment: Antibacterial activity, MIC, resistant A. baumannii MXX2240; format: cell-based, Acinetobacter baumannii; conditions: Acinetobacter baumannii, resistant A. baumannii MMX2240, MDR clinical isolate; read-out: MIC MMX2240
[8] = tested on: resistant K. pneumoniae MXX1232 (MDR clinical isolate); experiment: Antibacterial activity, MIC, resistant K. pneumoniae MXX1232; format: cell-based, Klebsiella pneumoniae; conditions: Klebsiella pneumoniae; resistant K. pneumoniae MMX1232, MDR clinical isolate; read-out: MIC MMX1232
[9] = tested on: Pseudomonas aeruginosa (P. aeruginosa) 27853; experiment: Antibacterial activity, MIC, P. aeruginosa 27853; format: cell-based; conditions: Pseudomonas aeruginosa, P. aeruginosa 27853; read-out: MIC 27853
Text: as §1
Antibacterial activity of test compounds against the Gram-negative bacterium Pseudomonas aeruginosa (P. aeruginosa) 27853 is shown in Table 5.

Compound	MIC [1] [µg/mL]	MIC [2] [µg/mL]	MIC [3] [µg/mL]	MIC [4] [µg/mL]	MIC [5] [µg/mL]	MIC [6] [µg/mL]	MIC [7] [µg/mL]	MIC [8] [µg/mL]	MIC [9] [µg/mL]
Cc1cc(N2C[C@@H]3[C@@H](N)[C@@H]3C2)ccc1-c1[nH]c(=O)c(C(=O)O)c(O)c1C [Cpd 318, 6-(4-((1R,5S,6s)-6-amino-3-azabicyclo[3.1.0]hexan-3-yl)-2-methylphenyl)-4-hydroxy-5-methyl-2-oxo-1,2-dihydropyridine-3-carboxylic acid]	3.5 to 12.5 (≈ 9.85 to 35.2 µM)	12.5 to 150 (≈ 35.2 to 422 µM)	12.5 to 150 (≈ 35.2 to 422 µM)	12.5 to 150 (≈ 35.2 to 422 µM)	12.5 to 150 (≈ 35.2 to 422 µM)	12.5 to 150 (≈ 35.2 to 422 µM)	12.5 to 150 (≈ 35.2 to 422 µM)	12.5 to 150 (≈ 35.2 to 422 µM)	12.5 to 150 (≈ 35.2 to 422 µM)
CCc1c(-c2ccc(N3CC4(CCN(C)CC4)C3)cc2)[nH]c(=O)c(C(=O)O)c1O [Cpd 319, 5-ethyl-4-hydroxy-6-(4-(7-methyl-2,7-diazaspiro[3.5]nonan-2-yl)phenyl)-2-oxo-1,2-dihydropyridine-3-carboxylic acid]	< 1	3.5 to 12.5 (≈ 8.81 to 31.4 µM)	12.5 to 150 (≈ 31.4 to 377 µM)	12.5 to 150 (≈ 31.4 to 377 µM)	12.5 to 150 (≈ 31.4 to 377 µM)	3.5 to 12.5 (≈ 8.81 to 31.4 µM)	12.5 to 150 (≈ 31.4 to 377 µM)	12.5 to 150 (≈ 31.4 to 377 µM)	12.5 to 150 (≈ 31.4 to 377 µM)
CCc1c(-c2ccc(N3CC4(CCNCC4)C3)cc2)[nH]c(=O)c(C(=O)O)c1O [Cpd 320, 6-(4-(2,7-diazaspiro[3.5]nonan-2-yl)phenyl)-5-ethyl-4-hydroxy-2-oxo-1,2-dihydropyridine-3-carboxylic acid]	3.5 to 12.5 (≈ 9.13 to 32.6 µM)	12.5 to 150 (≈ 32.6 to 391 µM)	12.5 to 150 (≈ 32.6 to 391 µM)	12.5 to 150 (≈ 32.6 to 391 µM)	12.5 to 150 (≈ 32.6 to 391 µM)	3.5 to 12.5 (≈ 9.13 to 32.6 µM)	12.5 to 150 (≈ 32.6 to 391 µM)	12.5 to 150 (≈ 32.6 to 391 µM)	12.5 to 150 (≈ 32.6 to 391 µM)
CCc1c(-c2ccc(N3CCC4(CCNC4)C3)cc2)[nH]c(=O)c(C(=O)O)c1O (stereo not drawn) [Cpd 321, 6-(4-(2,7-diazaspiro[4.4]nonan-2-yl)phenyl)-5-ethyl-4-hydroxy-2-oxo-1,2-dihydropyridine-3-carboxylic acid]	1 to 3.5 (≈ 2.61 to 9.13 µM)	12.5 to 150 (≈ 32.6 to 391 µM)	12.5 to 150 (≈ 32.6 to 391 µM)	12.5 to 150 (≈ 32.6 to 391 µM)	12.5 to 150 (≈ 32.6 to 391 µM)	3.5 to 12.5 (≈ 9.13 to 32.6 µM)	12.5 to 150 (≈ 32.6 to 391 µM)	12.5 to 150 (≈ 32.6 to 391 µM)	12.5 to 150 (≈ 32.6 to 391 µM)
CCc1c(-c2ccc(N3CCC4(CCN(C)C4)C3)cc2)[nH]c(=O)c(C(=O)O)c1O (stereo not drawn) [Cpd 322, 5-ethyl-4-hydroxy-6-(4-(7-methyl-2,7-diazaspiro[4.4]nonan-2-yl)phenyl)-2-oxo-1,2-dihydropyridine-3-carboxylic acid]	< 1	< 1	3.5 to 12.5 (≈ 8.81 to 31.4 µM)	12.5 to 150 (≈ 31.4 to 377 µM)	1 to 3.5 (≈ 2.52 to 8.81 µM)	1 to 3.5 (≈ 2.52 to 8.81 µM)	12.5 to 150 (≈ 31.4 to 377 µM)	12.5 to 150 (≈ 31.4 to 377 µM)	3.5 to 12.5 (≈ 8.81 to 31.4 µM)
CCc1c(-c2ccc(N3CC4(CCCN4)C3)cc2)[nH]c(=O)c(C(=O)O)c1O [Cpd 323, 6-(4-(2,5-diazaspiro[3.4]octan-2-yl)phenyl)-5-ethyl-4-hydroxy-2-oxo-1,2-dihydropyridine-3-carboxylic acid]	1 to 3.5 (≈ 2.71 to 9.47 µM)	3.5 to 12.5 (≈ 9.47 to 33.8 µM)	12.5 to 150 (≈ 33.8 to 406 µM)	3.5 to 12.5 (≈ 9.47 to 33.8 µM)	12.5 to 150 (≈ 33.8 to 406 µM)	12.5 to 150 (≈ 33.8 to 406 µM)	12.5 to 150 (≈ 33.8 to 406 µM)	12.5 to 150 (≈ 33.8 to 406 µM)	12.5 to 150 (≈ 33.8 to 406 µM)
CCc1c(-c2ccc(N3CC4(CNC4)C3)cc2)[nH]c(=O)c(C(=O)O)c1O [Cpd 324, 6-(4-(2,6-diazaspiro[3.3]heptan-2-yl)phenyl)-5-ethyl-4-hydroxy-2-oxo-1,2-dihydropyridine-3-carboxylic acid]	3.5 to 12.5 (≈ 9.85 to 35.2 µM)	12.5 to 150 (≈ 35.2 to 422 µM)	12.5 to 150 (≈ 35.2 to 422 µM)	12.5 to 150 (≈ 35.2 to 422 µM)	12.5 to 150 (≈ 35.2 to 422 µM)	12.5 to 150 (≈ 35.2 to 422 µM)	12.5 to 150 (≈ 35.2 to 422 µM)	12.5 to 150 (≈ 35.2 to 422 µM)	12.5 to 150 (≈ 35.2 to 422 µM)
CCNc1ccc(-c2[nH]c(=O)c(C(=O)O)c(O)c2CC)cc1 [Cpd 325, 5-ethyl-6-(4-(ethylamino)phenyl)-4-hydroxy-2-oxo-1,2-dihydropyridine-3-carboxylic acid]	< 1	3.5 to 12.5 (≈ 11.6 to 41.3 µM)	12.5 to 150 (≈ 41.3 to 496 µM)	12.5 to 150 (≈ 41.3 to 496 µM)	3.5 to 12.5 (≈ 11.6 to 41.3 µM)	3.5 to 12.5 (≈ 11.6 to 41.3 µM)	12.5 to 150 (≈ 41.3 to 496 µM)	12.5 to 150 (≈ 41.3 to 496 µM)	12.5 to 150 (≈ 41.3 to 496 µM)
CCc1c(-c2ccc(NC)cc2)[nH]c(=O)c(C(=O)O)c1O [Cpd 326, 5-ethyl-4-hydroxy-6-(4-(methylamino)phenyl)-2-oxo-1,2-dihydropyridine-3-carboxylic acid]	< 1	3.5 to 12.5 (≈ 12.1 to 43.4 µM)	12.5 to 150 (≈ 43.4 to 520 µM)	12.5 to 150 (≈ 43.4 to 520 µM)	1 to 3.5 (≈ 3.47 to 12.1 µM)	3.5 to 12.5 (≈ 12.1 to 43.4 µM)	3.5 to 12.5 (≈ 12.1 to 43.4 µM)	12.5 to 150 (≈ 43.4 to 520 µM)	12.5 to 150 (≈ 43.4 to 520 µM)
